Consider 13 compounds from patent US20150374767A1, “Treatment of Cancer” (priority 2013, published 2015).

“Also recorded” adds a separate entry of the source. Counter-ions that a name gives are not always drawn.

In assay [1] the test system is VEGFR2. The note with it: cited from earlier work; for IC50: read-out: IC50 for VEGFR2 (KDR).
Assay [2] concerns the target PDGFRβ (Homo sapiens, UniProt P09619). The note with it: cited from earlier work.
Assay [3] deals with human gastric carcinoma xenograft. Nature of the assay: patient-derived human gastric carcinoma xenograft model. Set-up: species or system mice. The settings on record: mouse, in vivo. As to the method: HSV1716 (Seprehvir) was used in a personalised oncology study. Patient-derived tumour samples were obtained from a gastric carcinoma. There have been no previous in vitro or in vivo pre-clinical studies with Seprehvir in human gastric carcinoma cells/xenografts. Seprehvir was stored at −70° C., and multiple vials were provided to avoid repeated freeze/thawing.
Two groups of 3 mice with gastric carcinoma implants were treated with 2×10^6 pfu Seprehvir by either intratumoural (IT) or intravenous (IV) routes of administration. Control mice (n=3) received no treatment and in these mice the implants grew rapidly and all were sacrificed within 18 days (FIG. 61). For IV injection, Seprehvir was administered on days 0, 3, 10 and 18, at which point the tumors were too large and the mice were sacrificed.
For IT injection of Seprehvir, 2×10^6 pfu was administered on days 0, 3, 10, 18, 21 and 25.
. Control mice (n=3) received no treatment and in these mice the implants grew rapidly and all were sacrificed within 18 days (FIG. 62). […]. A follow-on study with HSV1716 administering more frequent by IV dosing at the higher concentration of 10^7 pfu was performed using the same human gastric carcinoma xenograft model. […].
Groups of 3 mice received IV injection of HSV1716 at 1×10^7 pfu on days 1, 3, 5, 8, 10, 12, 15, 17 and 19. […]
For orientation: Xenograft models place foreign cells or tissue in a host animal.

In assay [4] the test system is Virttu cell panel. The assay is described as follows: combination with HSV1716, DCP cell death, Chou-Talalay analysis, cell panel. Format: cell-based, human.
In assay [5] the test system is Hep3B. It counts as cell-based, human.
For assay [6], the target named is c-Met (Homo sapiens, UniProt P08581). The note with it: cited from earlier work.
c-Met, sequence (P08581 25-1390): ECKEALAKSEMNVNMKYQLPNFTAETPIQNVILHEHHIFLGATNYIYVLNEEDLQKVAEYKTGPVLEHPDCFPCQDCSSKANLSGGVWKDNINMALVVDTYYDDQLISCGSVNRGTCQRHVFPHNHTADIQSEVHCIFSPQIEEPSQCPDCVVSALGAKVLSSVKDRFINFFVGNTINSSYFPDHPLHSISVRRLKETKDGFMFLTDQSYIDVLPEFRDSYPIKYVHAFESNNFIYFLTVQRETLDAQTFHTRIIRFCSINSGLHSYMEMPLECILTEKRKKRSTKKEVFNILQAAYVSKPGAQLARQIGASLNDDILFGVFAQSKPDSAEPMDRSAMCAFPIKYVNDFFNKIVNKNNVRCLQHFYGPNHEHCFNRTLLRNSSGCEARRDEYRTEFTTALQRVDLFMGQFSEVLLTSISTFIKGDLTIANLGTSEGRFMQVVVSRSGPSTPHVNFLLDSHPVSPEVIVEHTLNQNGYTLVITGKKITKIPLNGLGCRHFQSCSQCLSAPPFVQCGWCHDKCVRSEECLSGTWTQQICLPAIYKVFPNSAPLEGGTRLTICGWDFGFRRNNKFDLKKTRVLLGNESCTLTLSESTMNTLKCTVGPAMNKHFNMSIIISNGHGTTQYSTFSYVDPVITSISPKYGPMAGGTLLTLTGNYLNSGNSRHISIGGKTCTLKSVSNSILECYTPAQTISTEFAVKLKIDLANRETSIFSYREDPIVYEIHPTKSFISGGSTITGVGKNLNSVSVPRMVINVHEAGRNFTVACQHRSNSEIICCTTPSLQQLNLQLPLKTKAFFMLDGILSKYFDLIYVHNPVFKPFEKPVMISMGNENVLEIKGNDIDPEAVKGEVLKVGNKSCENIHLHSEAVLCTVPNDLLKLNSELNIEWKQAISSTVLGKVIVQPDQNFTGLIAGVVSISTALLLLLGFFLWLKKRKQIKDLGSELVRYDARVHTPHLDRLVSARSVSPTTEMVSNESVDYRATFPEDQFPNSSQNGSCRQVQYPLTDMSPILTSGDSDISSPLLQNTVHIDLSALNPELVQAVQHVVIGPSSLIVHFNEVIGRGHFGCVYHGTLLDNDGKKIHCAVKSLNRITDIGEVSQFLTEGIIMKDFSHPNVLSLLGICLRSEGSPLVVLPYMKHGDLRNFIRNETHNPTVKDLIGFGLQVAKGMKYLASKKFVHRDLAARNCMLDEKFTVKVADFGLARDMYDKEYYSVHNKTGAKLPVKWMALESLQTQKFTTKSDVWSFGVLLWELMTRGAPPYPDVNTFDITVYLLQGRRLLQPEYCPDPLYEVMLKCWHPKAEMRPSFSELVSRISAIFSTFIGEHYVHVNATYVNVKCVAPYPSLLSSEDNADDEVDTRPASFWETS
In assay [7] the test system is UVW. It counts as cell-based, human.
In assay [8] the test system is Virttu cell line panel. Nature of the assay: cells. Format: cell-based. The note with it: Homo sapiens; most/all cell lines of panel, 72 hrs; read-out: IC50 (DCP leakage), range over cell lines.
The test system of assay [9] is HSV1716gfp. Nature of the assay: GFP expression during infection with HSV1716gfp (drug toxicity to virus). It counts as cell-based, herpes simplex virus.
Assay [10] relates to HuH7. It counts as cell-based, human.
For assay [11], the system named is CP70. Format: cell-based, human.
Assay [12] deals with SPC111. Nature of the assay: combination with HSV1716, Chou-Talalay, SPC111. It counts as cell-based, human. The note with it: SPC111, HSV1716 moi 0.5 and 0.05, 72 hours.
For assay [13], the system named is U87. Format: cell-based, human.
The subject of assay [14] is One58. Format: cell-based, human.
The subject of assay [15] is HepG2-luc. Format: cell-based, human.
The test system of assay [16] is SKOV3. Format: cell-based, human.
Assay [17] deals with Ovcar3. It counts as cell-based, human.
The test system of assay [18] is PARP. Nature of the assay: PARP cleavage by Western blotting. It counts as cell-based, human. The note with it: in combination with HSV1716.

PDGFRβ, sequence (P09619 33-1106): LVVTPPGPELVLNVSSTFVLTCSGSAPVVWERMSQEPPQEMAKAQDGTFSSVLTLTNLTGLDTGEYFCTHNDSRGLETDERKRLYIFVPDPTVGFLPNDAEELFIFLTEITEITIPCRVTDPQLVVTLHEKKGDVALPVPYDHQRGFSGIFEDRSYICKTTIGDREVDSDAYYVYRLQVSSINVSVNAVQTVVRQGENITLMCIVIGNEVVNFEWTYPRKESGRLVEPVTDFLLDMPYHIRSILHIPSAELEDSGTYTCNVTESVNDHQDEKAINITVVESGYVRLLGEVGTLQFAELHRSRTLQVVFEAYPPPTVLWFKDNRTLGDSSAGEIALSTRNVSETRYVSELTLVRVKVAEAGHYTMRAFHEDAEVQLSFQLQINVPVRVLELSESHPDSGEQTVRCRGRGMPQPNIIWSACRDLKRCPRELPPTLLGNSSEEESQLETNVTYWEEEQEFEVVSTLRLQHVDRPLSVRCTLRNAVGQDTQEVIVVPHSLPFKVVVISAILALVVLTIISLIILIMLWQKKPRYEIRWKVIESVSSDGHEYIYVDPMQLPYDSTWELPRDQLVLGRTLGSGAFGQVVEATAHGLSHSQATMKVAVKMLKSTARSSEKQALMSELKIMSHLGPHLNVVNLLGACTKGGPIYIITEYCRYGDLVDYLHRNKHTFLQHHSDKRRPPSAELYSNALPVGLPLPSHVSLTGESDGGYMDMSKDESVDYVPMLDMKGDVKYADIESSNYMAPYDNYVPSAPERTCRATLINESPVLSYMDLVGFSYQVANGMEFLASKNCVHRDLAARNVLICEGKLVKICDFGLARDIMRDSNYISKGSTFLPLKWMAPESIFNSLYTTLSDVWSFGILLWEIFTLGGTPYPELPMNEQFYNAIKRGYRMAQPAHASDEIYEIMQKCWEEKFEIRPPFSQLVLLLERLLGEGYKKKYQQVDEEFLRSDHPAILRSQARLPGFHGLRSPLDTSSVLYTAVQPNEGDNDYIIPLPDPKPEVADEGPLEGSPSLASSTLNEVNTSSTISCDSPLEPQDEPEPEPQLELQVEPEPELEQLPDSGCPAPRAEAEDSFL

A word on the IC50: it is the midpoint of a concentration-inhibition curve. With `CCN1CCN(Cc2ccc(-c3cc4c(N[C@H](C)c5ccccc5)ncnc4[nH]3)cc2)CC1` [AEE788, 6-[4-[(4-Ethylpiperazin-1-yl)methyl]phenyl]-N-[(1R)-1-phenylethyl]-7H-pyrrolo[2,3-d]pyrimidin-4-amine], the IC50 in assay [1] is 77 nM.

Take `COc1cc2c(Oc3ccc4[nH]c(C)cc4c3F)ncnc2cc1OCCCN1CCCC1` [Cediranib, 4-[(4-fluoro-2-methyl-1H-indol-5-yl)oxy]-6-methoxy-7-[3-(pyrrolidin-1-yl)propoxy]quinazoline]: the IC50 in assay [1] is 0.5 nM.

As for `CCCNC(=O)Nc1ccc(Oc2ncnc3cc(OC)c(OC)cc23)cc1Cl` [KRN 633, N-[2-Chloro-4-[(6,7-dimethoxy-4-quinazolinyl)oxy]phenyl]-N′-propylurea], the results for the IC50 in [1] and in assay [2] were 160 nM and 9850 nM, respectively.

For the compound `CNC(=O)c1cc(Oc2ccc(NC(=O)Nc3ccc(Cl)c(C(F)(F)F)c3)c(F)c2)ccn1.O` [Regorafenib, 4-[4-({[4-Chloro-3-(trifluoromethyl)phenyl]carbamoyl}amino)-3-fluorophenoxy]-N-methylpyridine-2-carboxamide hydrate], the tumour growth inhibition result in assay [3] is on record as “highly effective at tumour growth inhibition”.

Regarding `N#CC1(c2ccc(NC(=O)c3cccnc3NCc3ccncc3)cc2)CCCC1` [Apatinib, N-[4-(1-cyanocyclopentyl)phenyl-2-(4-picolyl)amino-3-Nicotinamide methanesulphonate], the IC50 in assay [1] is 2.34 nM.

As to `Cc1cc(F)c(Nc2ncnc3cc(OCc4ccccc4)ccc23)cc1O` [ZM 323881 HCl, 5-((7-Benzyloxyquinazolin-4-yl)amino)-4-fluoro-2-methylphenol hydrochloride], in assay [1], the IC50 was less than 2 nM.

In the case of `COc1cc2ncnc(Nc3ccc(F)c(Cl)c3)c2cc1OCCCN1CCOCC1` [Gefitinib, N-(3-chloro-4-fluoro-phenyl)-7-methoxy-6-(3-morpholin-4-ylpropoxy)quinazolin-4-amine], in [4], the “overall synergy/antagonism with HSV1716 on cell death” value is reported as “antagonistic with HSV1716 in all cell lines; also recorded: mostly antagonistic”. In assay [5], the “synergy/antagonism with HSV1716 on cell death (Chou-Talalay)” value (“synergy/antagonism … (Chou-Talalay)” below) is given as “Synergy”.

In the case of “N-(2-fluoro-4-((2-(4-(4-methylpiperazin-1-yl)piperidine-1-carboxamido)pyridin-4-yl)oxy)phenyl)-N-(4-fluorophenyl)cyclopropane-1,1-dicarboxamide [Golvatinib]”, the IC50 in [1] was 16 nM; in [6], 14 nM.

For the compound `CN(C[C@@H]1COCCO1)S(=O)(=O)Nc1ccc2ccc3ncc(-c4cnn(C)c4)cc3c(=O)c2c1` [MK-2461, N-((2R)-1,4-Dioxan-2-ylmethyl)-N-methyl-N′-[3-(1-methyl-1H-pyrazol-4-yl)-5-oxo-5H-benzo[4,5]cyclohepta[1,2-b]pyridin-7-yl]sulfamide], the 50% inhibitory concentration (IC50) in assay [6] was 2.5 nM; in assay [2], 22 nM.

For `C[C@@H](Oc1cc(-c2cnn(C3CCNCC3)c2)cnc1N)c1c(Cl)ccc(F)c1Cl` [Crizotinib, 3-[(1R)-1-(2,6-dichloro-3-fluorophenyl)ethoxy]-5-(1-piperidin-4-ylpyrazol-4-yl)pyridin-2-amine], the “number of cell lines in which moi 0.05 generated synergy” value in assay [4] is 8 of the 9. Also, the “number of cell lines in which moi 0.5 generated synergy” value in assay [4] was 3 of the 9. For the same compound, the “synergy/antagonism … (Chou-Talalay)” value is “strongly synergistic” in assay [7]; “some limited synergy” in [10]; “strongly synergistic” in assay [11]; “some limited synergy” in [12]; “strongly synergistic” in [13]; “antagonistic” in [14]. Further, the “synergy/antagonism … (Chou-Talalay)” value in assay [15] is on record as “synergistic”; in assay [16] it was “some limited synergy”; in assay [17], “some limited synergy”. Further, the IC50 in [8] fell in the range of 2000 to 30000 nM. In addition, the “effect on GFP expression during HSV1716gfp infection” value (“effect” for short) in [9] (CP70, moi 0.5 and 0.05, 72 hrs) is recorded as “increased GFP expression”; in assay [9] (Hep3B, moi 0.5 and 0.05, 72 hrs) it was “decreased GFP expression”; in assay [9] (HepG2-luc, both moi (0.5 and 0.05), 72 hrs) it was “little effect on GFP expression”; in [9] (HuH7, moi 0.5 and 0.05, 72 hrs) it was “decreased GFP expression”; in [9] (One58, moi 0.5 and 0.05, 72 hrs), “increased GFP expression”; in [9] (Ovcar3, moi 0.5 and 0.05, all drug doses, 72 hrs) it was “little effect on GFP expression”. The “effect” value is “little effect on GFP expression” in [9] (SPC-111, moi 0.5 and 0.05, all drug doses, 72 hrs); “little effect on GFP expression” in assay [9] (Skov3, moi 0.5 and 0.05, all drug doses, 72 hrs); “increased GFP expression” in [9] (U87, moi 0.5 and 0.05, 72 hrs); “decreased GFP expression” in assay [9] (UVW, moi 0.5 and 0.05, 72 hrs).

On to `CCN(CC)CCNC(=O)c1c(C)[nH]c(/C=C2\C(=O)Nc3ccc(F)cc32)c1C` [Sunitinib, N-(2-diethylaminoethyl)-5-[(Z)-(5-fluoro-2-oxo-1H-indol-3-ylidene)methyl]-2,4-dimethyl-1H-pyrrole-3-carboxamide], for which, in assay [4], the “number of cell lines in which moi 0.05 generated synergy” value is on record as 9 of the 10. For the same compound, the “number of cell lines in which moi 0.5 generated synergy” value in assay [4] is 7 of the 10. Also, in assay [4], the “number of cell lines tested with clear synergy signals / synergism with HSV1716” value was 9 of the 10. In addition, the “synergy/antagonism … (Chou-Talalay)” value in [7] is “antagonistic”; in assay [11] it was “strongly synergistic”; in assay [12], “strongly synergistic”; in assay [13], “strongly synergistic”; in [14], “strongly synergistic”; in assay [15] it was “strongly synergistic”. Besides, in assay [16], the “synergy/antagonism … (Chou-Talalay)” value is given as “some evidence of synergy”. The IC50 in assay [8] fell in the range of 500 to 15000 nM. The “effect” value in [9] (CP70, moi 0.05, 72 hrs) is “more pronounced”; in assay [9] (SPC111, moi 0.05, 72 hrs), “more pronounced”; in assay [9] (all 9 cell lines tested, moi 0.5 and moi 0.05, 72 hours) it was “increased GFP expression”. For the same compound, the “PARP cleavage (executioner phase of apoptosis)” value in assay [18] (Hep3B cells) and in assay [18] (Ovcar3 cells) was “PARP cleavage demonstrated by Western blotting” in each case.

Take `Cc1[nH]c(/C=C2\C(=O)Nc3ccccc32)c(C)c1CCC(=O)O` [TSU-68, (Z)-3-(2,4-dimethyl-5-((2-oxoindolin-3-ylidene)methyl)-1H-pyrrol-3-yl)propanoic acid]: the Ki in assay [1] (read-out: Ki for VEGFR2 (Flk-1/KDR)) was 2100 nM; in assay [2] (read-out: Ki for PDGFRβ), 8 nM.

As to `Nc1nccc(Oc2ccc(NC(=O)c3c[nH]cc(-c4ccc(F)cc4)c3=O)cc2F)c1Cl` [BMS 794833, N-(4-((2-amino-3-chloropyridin-4-yl)oxy)-3-fluorophenyl)-5-(4-fluorophenyl)-4-oxo-1,4-dihydropyridine-3-carboxamide], the IC50 in assay [1] is 15 nM.
